Laboratory results: ChEMBL document CHEMBL3600353, “In Vitro Activity of Epigallocatechin Gallate and Quercetin Alone and in Combination versus Clinical Isolates of Methicillin-Resistant Staphylococcus aureus” (2015)
Activity calls are given as the source filed them.

Legend:
Staphylococcus aureus [1] = experiment: Antibacterial activity against methicillin-resistant Staphylococcus aureus NCTC 12493 at 1.69 mM after 5 hrs by time kill assay; assay type: functional, organism-based
Staphylococcus aureus [2] = experiment: Antibacterial activity against methicillin-resistant Staphylococcus aureus isolate 3 by disk diffusion assay; assay type: functional
Staphylococcus aureus [3] = experiment: Antibacterial activity against methicillin-resistant Staphylococcus aureus isolate 6 after 24 hrs by checkerboard assay; assay type: functional; details: isolate 6, 24 h
Staphylococcus aureus [4] = experiment: Antibacterial activity against methicillin-resistant Staphylococcus aureus isolate 7 after 24 hrs by checkerboard assay; assay type: functional; details: isolate 7, 24 h
Staphylococcus aureus [5] = experiment: Antibacterial activity against methicillin-resistant Staphylococcus aureus isolate 3 after 24 hrs by checkerboard assay; assay type: functional; details: isolate 3, 24 h
Staphylococcus aureus [6] = experiment: Antibacterial activity against methicillin-resistant Staphylococcus aureus NCTC 12493 after 24 hrs by checkerboard assay; assay type: functional; details: NCTC 12493, 24 h
Staphylococcus aureus [7] = experiment: Antibacterial activity against vancomycin-intermediate resistant Staphylococcus aureus Mu50 at 1.69 mM after 4 hrs by time kill assay; assay type: functional, organism-based
Staphylococcus aureus [8] = experiment: Antibacterial activity against methicillin-resistant Staphylococcus aureus isolate 9 by disk diffusion assay; assay type: functional
Staphylococcus aureus [9] = experiment: Antibacterial activity against methicillin-resistant Staphylococcus aureus isolate 2 by disk diffusion assay; assay type: functional
Staphylococcus aureus [10] = experiment: Antibacterial activity against methicillin-resistant Staphylococcus aureus isolate 2 after 24 hrs by checkerboard assay; assay type: functional; details: isolate 2, 24 h
Staphylococcus aureus [11] = experiment: Antibacterial activity against methicillin-resistant Staphylococcus aureus isolate 8 after 24 hrs by checkerboard assay; assay type: functional; details: isolate 8, 24 h
Staphylococcus aureus [12] = experiment: Antibacterial activity against methicillin-sensitive Staphylococcus aureus ATCC 25923 at 1.69 mM after 5 hrs by time kill assay; assay type: functional, organism-based
Staphylococcus aureus [13] = experiment: Antibacterial activity against methicillin-resistant Staphylococcus aureus NCTC 12493 at 1.69 mM after 4 hrs by time kill assay; assay type: functional, organism-based
Staphylococcus aureus [14] = experiment: Antibacterial activity against methicillin-resistant Staphylococcus aureus isolate 1 after 24 hrs by checkerboard assay; assay type: functional; details: isolate 1, 24 h
Staphylococcus aureus [15] = experiment: Antibacterial activity against Staphylococcus aureus ATCC 25923 after 24 hrs by checkerboard assay; assay type: functional; details: ATCC 25923, 24 h
Staphylococcus aureus [16] = experiment: Antibacterial activity against methicillin-resistant Staphylococcus aureus isolate 4 by disk diffusion assay; assay type: functional
Staphylococcus aureus [17] = experiment: Antibacterial activity against methicillin-resistant Staphylococcus aureus isolate 4 after 24 hrs by checkerboard assay; assay type: functional; details: isolate 4, 24 h
Staphylococcus aureus [18] = experiment: Antibacterial activity against methicillin-resistant Staphylococcus aureus isolate 9 after 24 hrs by checkerboard assay; assay type: functional; details: isolate 9, 24 h
Staphylococcus aureus [19] = experiment: Antibacterial activity against methicillin-resistant Staphylococcus aureus isolate 5 after 24 hrs by checkerboard assay; assay type: functional; details: isolate 5, 24 h
Staphylococcus aureus [20] = experiment: Antibacterial activity against methicillin-resistant Staphylococcus aureus isolate 1 by disk diffusion assay; assay type: functional
Staphylococcus aureus [21] = experiment: Antibacterial activity against methicillin-resistant Staphylococcus aureus isolate 7 by disk diffusion assay; assay type: functional
Staphylococcus aureus [22] = experiment: Antibacterial activity against methicillin-resistant Staphylococcus aureus isolate 6 by disk diffusion assay; assay type: functional
Staphylococcus aureus [23] = experiment: Antibacterial activity against methicillin-resistant Staphylococcus aureus isolate 5 by disk diffusion assay; assay type: functional
Staphylococcus aureus [24] = experiment: Antibacterial activity against vancomycin-intermediate resistant Staphylococcus aureus Mu50 after 24 hrs by checkerboard assay; assay type: functional; details: Mu50, 24 h
Staphylococcus aureus [25] = experiment: Antibacterial activity against methicillin-resistant Staphylococcus aureus isolate 8 by disk diffusion assay; assay type: functional
Staphylococcus aureus [26] = experiment: Antibacterial activity against methicillin-sensitive Staphylococcus aureus ATCC 25923 at 1.69 mM after 4 hrs by time kill assay; assay type: functional, organism-based
Staphylococcus aureus [27] = experiment: Antibacterial activity against methicillin-resistant Staphylococcus aureus NCTC 12493 assessed as log reduction of bacterial growth after 9 hrs; assay type: functional

O=c1c(O)c(-c2ccc(O)c(O)c2)oc2cc(O)cc(O)c12 [QUERCETIN]
850 µM: MIC (Staphylococcus aureus [6])
1: FC (Staphylococcus aureus [27])
inactive: Activity (Staphylococcus aureus [1]) | inhibition zone (IZ) (Staphylococcus aureus [2]) | Activity (Staphylococcus aureus [7]) | inhibition zone (IZ) (Staphylococcus aureus [8]) | inhibition zone (IZ) (Staphylococcus aureus [9]) | Activity (Staphylococcus aureus [12]) | inhibition zone (IZ) (Staphylococcus aureus [16]) | inhibition zone (IZ) (Staphylococcus aureus [21]) | inhibition zone (IZ) (Staphylococcus aureus [22]) | inhibition zone (IZ) (Staphylococcus aureus [23]) | inhibition zone (IZ) (Staphylococcus aureus [25])
active: Activity (Staphylococcus aureus [13]) | Activity (Staphylococcus aureus [26])
1690 µM: MIC (Staphylococcus aureus [3]) | MIC (Staphylococcus aureus [4]) | MIC (Staphylococcus aureus [5]) | MIC (Staphylococcus aureus [10]) | MIC (Staphylococcus aureus [11]) | MIC (Staphylococcus aureus [14]) | MIC (Staphylococcus aureus [15]) | MIC (Staphylococcus aureus [17]) | MIC (Staphylococcus aureus [18]) | MIC (Staphylococcus aureus [19]) | MIC (Staphylococcus aureus [24])
8 mm: inhibition zone (IZ) (Staphylococcus aureus [20])
